Data from patent US10364216B2, “Alkenyl sulfate ester or salt thereof” (Kao Corporation, priority 2013, dated 2019).
Structures can show the parent of a compound that is named as a salt. Residues, ends and D or L forms follow the SMILES beside them.

What was measured:
Assay type in all cases: in vivo, human
[1] = Sweetness adjusting action on sucrose, aspartame, sucralose, glycyrrhizin (simultaneous intake); settings: sucrose 7.5 wt %, aspartame 494 ppm, sucralose 0.49 mM, glycyrrhizin 303 ppm, alone or containing 5 mM trans-3-octenyl sulfate, scale 0 to 15; for Sweetness intensity (mean) When drinking water after 30 seconds: 10 mL pure water 30 seconds after sample; for Sweetness intensity (mean) When drinking sample: 10 mL
Procedure: To seven examiners, four kinds of 10 mL aqueous sucrose standard solutions (2.5, 5.0, 7.5 and 10.0 wt %) were presented. The examiners kept each of the solutions in their mouth for 5 seconds or so, and then spat the solution out, and were asked to consider the sweetness intensity at that time (0 to 15) to be 2.5, 5, 7.5 and 10, respectively. Next, the examiners kept 10 mL aqueous solution (7.5 wt %) of sucrose in their mouth for 5 seconds or so without knowing the kind and the concentration of the sweetener, and then spat the solution out, and compared the sweetness intensity at that time with that of the aqueous sucrose standard solution, and evaluated the sweetness intensity with a number in a range of 0 to 15. In addition, after 30 seconds, the examiners kept 10 mL pure water in their mouth, and then spat the solution out, and compared the sweetness intensity felt at that time with that of the aqueous sucrose standard solution, and evaluated the sweetness intensity in the same manner. Subsequently, the examiners were presented with 10 mL aqueous sucrose solution containing 5 mM trans-3-octenyl sulfate (7.5 wt %), and kept it in their mouth for 5 seconds or so, and then spat the solution out, and compared the sweetness intensity at that time with the sweetness intensity of the aqueous sucrose standard solution, and evaluated the sweetness intensity in the same manner. In addition, immediately after that, the examiners kept 10 mL pure water in their mouth for 5 seconds or so, and then spat the solution out, and compared the sweetness intensity at that time with that of the aqueous sucrose standard solution, and evaluated the sweetness intensity in the same manner. In addition, after 30 seconds, the examiners kept 10 mL pure water in their mouth, and then spat the solution out, and compared the sweetness intensity felt at that time with that of the aqueous sucrose standard solution, and evaluated the sweetness intensity in the same manner.
To seven examiners, 4 kinds of 10 mL aqueous sucrose standard solutions (2.5, 5.0, 7.5 and 10.0 wt %) were presented. The examiners kept each of the solutions in their mouth for 5 seconds or so, and then spat the solution out, and were asked to consider the sweetness intensity at that time (0 to 15) to be 2.5, 5, 7.5 and 10, respectively. Next, the examiners kept 10 mL aqueous solution of aspartame (494 ppm) in their mouth for 5 seconds or so without knowing the kind and the concentration of the sweetener, and then spat the solution out, and compared the sweetness intensity at that time with that of the aqueous sucrose standard solution, and evaluated the sweetness intensity with a number in a range of 0 to 15. The concentration of aspartame was prepared to have the same sweetness intensity as that of the aqueous sucrose solution (7.5 wt %) in accordance with the reference (Schiffman, S. S. et al. Chemical senses, 1999, 24, 439-447.). In addition, after 30 seconds, the examiners kept 10 mL pure water in their mouth, and then spat the solution out, and compared the sweetness intensity felt at that time with that of the aqueous sucrose standard solution, and evaluated the sweetness intensity in the same manner. Subsequently, the examiners were presented with 10 mL aqueous solution of aspartame containing 5 mM trans-3-octenyl sulfate (494 ppm), and kept it in their mouth for 5 seconds or so, and then spat the solution out, and compared the sweetness intensity at that time with the sweetness intensity of the sucrose standard solution, and evaluated the sweetness intensity in the same manner. In addition, after 30 seconds, the examiners kept 10 mL pure water in their mouth, and then spat the solution out, and compared the sweetness intensity felt at that time with that of the aqueous sucrose standard solution, and evaluated the sweetness intensity in the same manner. […]

[2] = Action of reinforcing sweetness (previous intake of trans-3-octenyl sulfate); settings: scale 0 to 15, six examiners
Procedure: To six examiners, 4 kinds of 10 mL aqueous solutions of sucrose standard (2.5, 5.0, 7.5 and 10.0 wt %) were presented. The examiners kept each of the solutions in their mouth for 5 seconds or so, and then spat the solution out, and were asked to consider the sweetness intensity at that time (0 to 15) to be 2.5, 5, 7.5 and 10, respectively. Next, the examiners kept 10 mL aqueous solution of sucralose (0.25 mM) in their mouth for 5 seconds or so without knowing the kind and the concentration of the sweetener, and then spat the solution out, and compared the sweetness intensity at that time with that of the aqueous sucrose standard solution, and evaluated the sweetness intensity with a number in a range of 0 to 15. Subsequently, the examiners kept 10 mL solution of 5 mM trans-3-octenyl sulfate in advance in their mouth for 5 seconds or so in advance, and then spat the solution out, and after passage of 60 seconds, the examiners kept 10 mL aqueous solution of sucralose (0.25 mM) in their mouth for 5 seconds or so, and then spat the solution out, and compared the sweetness intensity at that time with that of the aqueous sucrose standard solution, and evaluated the sweetness intensity with a number in a range of 0 to 15.
To six examiners, 4 kinds of 10 mL aqueous sucrose standard solutions (2.5, 5.0, 7.5 and 10.0 wt %) were presented. The examiners kept each of the solutions in their mouth for 5 seconds or so, and then spat the solution out, and were asked to consider the sweetness intensity at that time (0 to 15) to be 2.5, 5, 7.5 and 10, respectively. Next, the examiners kept 10 mL aqueous solution of glycyrrhizin (0.25 mM) in their mouth for 5 seconds or so without knowing the kind and the concentration of the sweetener, and then spat the solution out, and compared the sweetness intensity at that time with that of the aqueous sucrose standard solution, and evaluated the sweetness intensity with a number in a range of 0 to 15. Subsequently, the examiners kept 10 mL solution of 5 mM trans-3-octenyl sulfate in their mouth for 5 seconds or so in advance, and then spat the solution out, and after passage of 60 seconds, the examiners kept 10 mL aqueous solution of glycyrrhizin (0.25 mM) in their mouth for 5 seconds or so, and then spat the solution out, and compared the sweetness intensity at that time with that of the aqueous sucrose standard solution, and evaluated the sweetness intensity with a number in a range of 0 to 15.

[3] = Evaluation of sweetness (1)/(2): presence or absence of sweetness judged by examiners
Procedure: Trans-3-octenyl sulfate was dissolved in water to be 1 wt %, which was taken as a test sample. Six examiners kept 50 μL of the prepared test sample in their mouth, and then drunk some water, and judged for presence or absence of sweetness.
Cis-3-octenyl sulfate was dissolved in water to 1 wt %, which was taken as a test sample. Four examiners kept 50 μL of the prepared test sample in their mouth, and then drunk some water, and judged presence or absence of sweetness.

[4] = Evaluation of sweetness (3)/(4): sweetness intensity over time against sucrose standard solutions
Procedure: (§1) To seven examiners, 4 kinds of 10 mL aqueous sucrose standard solutions (2.5, 5.0, 7.5 and 10.0 wt %) were presented. The examiners kept each of the solutions in their mouth for 5 seconds or so, and then spat the solution out, and were asked to consider the sweetness intensity at that time (0 to 15) to be 2.5, 5, 7.5 and 10, respectively. Next, the examiners kept 10 mL solution of 10 mM trans-3-octenyl sulfate in their mouth for 5 seconds or so, and then spat the solution out, and compared the sweetness intensity at that time with that of the aqueous sucrose standard solution, and evaluated the sweetness intensity with a number in a range of 0 to 15. Then, the examiners kept 10 mL pure water for 5 minutes at an interval of 30 seconds, and then spat the solution out, and evaluated the sweetness intensity at that time in the same manner.
as §1, with “four” for “4”, “cis-3-octenyl” for “trans-3-octenyl”, “water in their mouth” for “water”

[5] = No previous intake of trans-3-octenyl sulfate, 10 mL sweetener 0.25 mM
[6] = Previous intake of 10 mL 5 mM trans-3-octenyl sulfate, 60 seconds before 10 mL sweetener 0.25 mM
[7] = 1 wt % in water, 50 μL kept in mouth, then water (13 ml), six examiners (trans), four examiners (cis)

Which “Sweetness intensity (mean) When drinking water after 30 seconds” value (“Sweetness intensity … after 30 seconds” for short) [1] does the source give for `CC1(C)[C@@H](O[C@H]2O[C@H](C(=O)O)[C@@H](O)[C@H](O)[C@H]2O[C@@H]2O[C@H](C(=O)O)[C@@H](O)[C@H](O)[C@H]2O)CC[C@]2(C)[C@H]3C(=O)C=C4[C@@H]5C[C@@](C)(C(=O)O)CC[C@]5(C)CC[C@@]4(C)[C@]3(C)CC[C@@H]12` [Glycyrrhizin, glycyrrhizin] here?
Its value is 3.2.

And the “Sweetness intensity (mean) When drinking sample” value [1]?
Its value is 4.1.

What about the “Sweetness intensity (mean)” value [2, 5] of the same compound?
The value was 3.4.

And the “Sweetness intensity (mean)” value [2, 6]?
The value was 7.3.

For `COC(=O)[C@H](Cc1ccccc1)NC(=O)[C@@H](N)CC(=O)O` [Aspartame, aspartame] (H-Asp-Phe-OMe), which “Sweetness intensity … after 30 seconds” value [1] is on record?
The value was 1.0.

And the “Sweetness intensity (mean) When drinking sample” value [1]?
The value was 7.1.

For `CCCC/C=C\CCOS(=O)(=O)O` [cis-3-octenyl sulfate], which “No sweetness felt (number of examiners)” value [3, 7] is on record?
The value was 0.

And the “Sweetness felt (number of examiners)” value [3, 7]?
The value was 4.

What about the Duration of sweetness ([3]; 1 wt %, 50 μL, then water) of the same compound?
The Duration of sweetness was “the sweetness lasted for a certain time”.

What about the “Examiners who recognized the sweetness by virtue of intake of water” value ([4]; 10 mL of 10 mM solution, then pure water every 30 seconds) of the same compound?
Its value is “seven out of the seven”.

And the Duration of sweetness ([4]; 10 mL of 10 mM solution, then pure water every 30 seconds for 5 minutes)?
Its Duration of sweetness is “the sweetness lasted for a certain time”.

And the “Sweetness intensity (mean)” value ([4]; Time 0 minute, 10 mL of 10 mM solution kept 5 seconds, scale 0 to 15 vs sucrose standards, seven examiners)?
The value was 0.0.

What about the “Sweetness intensity (mean)” value ([4]; Time 0.5 minute, on keeping 10 mL pure water, after 10 mM solution, scale 0 to 15) of the same compound?
Its value is 1.8.

And the “Sweetness intensity (mean)” value ([4]; Time 1 minute, on keeping 10 mL pure water, after 10 mM solution, scale 0 to 15)?
Its value is 3.2.

What about the “Sweetness intensity (mean)” value ([4]; Time 1.5 minute, on keeping 10 mL pure water, after 10 mM solution, scale 0 to 15) of the same compound?
Its value is 3.4.

What about the “Sweetness intensity (mean)” value ([4]; Time 2 minute, on keeping 10 mL pure water, after 10 mM solution, scale 0 to 15) of the same compound?
Its value is 2.6.

What about the “Sweetness intensity (mean)” value ([4]; Time 2.5 minute, on keeping 10 mL pure water, after 10 mM solution, scale 0 to 15) of the same compound?
The value was 2.1.

What about the “Sweetness intensity (mean)” value ([4]; Time 3 minute, on keeping 10 mL pure water, after 10 mM solution, scale 0 to 15) of the same compound?
The value was 1.4.

What about the “Sweetness intensity (mean)” value ([4]; Time 3.5 minute, on keeping 10 mL pure water, after 10 mM solution, scale 0 to 15) of the same compound?
Its value is 1.4.

What about the “Sweetness intensity (mean)” value ([4]; Time 4 minute, on keeping 10 mL pure water, after 10 mM solution, scale 0 to 15) of the same compound?
The value was 0.9.

What about the “Sweetness intensity (mean)” value ([4]; Time 4.5 minute, on keeping 10 mL pure water, after 10 mM solution, scale 0 to 15) of the same compound?
The value was 0.5.

What about the “Sweetness intensity (mean)” value ([4]; Time 5 minute, on keeping 10 mL pure water, after 10 mM solution, scale 0 to 15) of the same compound?
The value was 0.5.

What does the source list for `OC[C@H]1O[C@@](CO)(O[C@H]2O[C@H](CO)[C@@H](O)[C@H](O)[C@H]2O)[C@@H](O)[C@@H]1O` [Sucrose, sucrose]?
Sweetness intensity (mean) When drinking water after 30 seconds [1]: 0.1; Sweetness intensity (mean) When drinking sample [1]: 7.1

With `OC[C@H]1O[C@H](O[C@]2(CCl)O[C@H](CCl)[C@@H](O)[C@@H]2O)[C@H](O)[C@@H](O)[C@H]1Cl` [Sucralose, sucralose] as the compound, how does the “Sweetness intensity … after 30 seconds” value [1] read?
Its value is 0.4.

And the “Sweetness intensity (mean) When drinking sample” value [1]?
The value was 8.4.

And the “Sweetness intensity (mean)” value [2, 5]?
The value was 7.3.

What about the “Sweetness intensity (mean)” value [2, 6] of the same compound?
The value was 10.2.
